In patent publication US8008506B2, “Indazole compounds” (priority 2008, dated 2011):

How the values were obtained:
[1] = target: T1, human β3 adrenergic receptor (Homo sapiens, UniProt P13945); assay: Test Example 1-A: human β3 adrenergic receptor agonist activity (cAMP EIA, transfected CHO cells, 24-well); format: cell-based; conditions: Table 1; maximum response to isoproterenol taken as 100%
T1 construct: the full length human β3 gene is obtained from a human genomic library; expressed in transfected cells; host or cells: CHO (Chinese Hamster Ovary) cells, pcDNA3, geneticin selection
T1 sequence (P13945 whole entry): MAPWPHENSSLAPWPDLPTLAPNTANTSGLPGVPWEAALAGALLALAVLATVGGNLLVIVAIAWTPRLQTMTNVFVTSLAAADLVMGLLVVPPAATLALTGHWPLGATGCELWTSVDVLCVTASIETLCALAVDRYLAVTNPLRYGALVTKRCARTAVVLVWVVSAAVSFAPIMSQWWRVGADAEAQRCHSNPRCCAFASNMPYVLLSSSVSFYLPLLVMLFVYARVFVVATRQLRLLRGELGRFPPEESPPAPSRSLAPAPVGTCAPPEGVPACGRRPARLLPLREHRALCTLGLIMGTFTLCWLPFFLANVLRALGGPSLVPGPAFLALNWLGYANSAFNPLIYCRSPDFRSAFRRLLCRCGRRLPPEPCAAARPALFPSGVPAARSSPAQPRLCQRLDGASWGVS
Procedure: (§1) Measurement of Human β3 Adrenergic Receptor Agonist Activity
The measurement of human β3 adrenergic receptor agonist activity is carried out using CHO (Chinese Hamster Ovary) cells transfected with pcDNA3 (manufactured by Invitrogen, Inc.) to which human β3 gene has been inserted. […] This human β3 cDNA fragment is used as a probe, and the full length human β3 gene is obtained from a human genomic library (manufactured by Clontech Laboratories, Inc.). The above cells are cultured in Ham's F-12 medium containing 10% fetal bovine serum and 400 μg/ml geneticin (manufactured by Invitrogen, Inc.). These cells are seeded on a 24-well plate to a concentration of 1×10^5 cells/well, and after being cultured for about 20 hours, the cells are left to stand in serum-free Ham's F-12 medium for 2 hours. A test compound is initially dissolved in DMSO, and then is diluted stepwise with Ham's F-12 containing 20 mmol/L HEPES, 1 mmol/L isobutylmethylxanthine, and 1 mmol/L ascorbic acid. The dilution is added to the cells. After the cells are cultured for 30 minutes, and then the medium is removed, followed by addition of 0.1 ml of 1 N NaOH to the cells. The cells are left to stand for 20 minutes, and then are added with 0.1 ml of 1 N acetic acid and are stirred. The resulting cell lysate is centrifuged, and then is subjected to quantification of cAMP with cAMP EIA kit (manufactured by Cayman Chemical Co.).

[2] = target: T1, human β3 adrenergic receptor; assay: Test Example 1-B: human β3 adrenergic receptor agonist activity (cAMP-Screen kit, transfected CHO cells, 96-well); format: cell-based; conditions: Table 2; maximum response to isoproterenol taken as 100%
Procedure: as §1
The measurement of human β3 adrenergic receptor agonist activity is carried out using CHO (Chinese Hamster Ovary) cells transfected with pcDNA3 (manufactured by Invitrogen, Inc.) to which human β3 gene has been inserted. […] This human β3 cDNA fragment is used as a probe, and the full length human β3 gene is obtained from a human genomic library (manufactured by Clontech Laboratories, Inc.). The above cells are cultured in Ham's F-12 medium containing 10% fetal bovine serum and 400 μg/ml geneticin (manufactured by Invitrogen, Inc.). These cells are seeded on a 96-well plate to a concentration of 2×10^4 cells/well, and after being cultured for about 20 hours, the cells are left to stand in 80 μL of serum-free Ham's F-12 medium for 15 minutes. A test compound is initially dissolved in DMSO, and then is diluted stepwise with Ham's F-12 containing 100 mmol/L HEPES and 1 mmol/L isobutylmethylxanthine. 20 μL of the dilution is added to the cells. After the cells are cultured for 30 minutes, the medium is removed. 0.3. ml of the Assay/lysis Buffer included in cAMP-Screen kit (manufactured by Applied Biosystems, Inc.) is added to the cells, and the cells are incubated at 37° C. for 30 minutes. The resulting cell lysate is subjected to quantification of cAMP with the cAMP-Screen kit.

[3] = test system: urinary bladder smooth muscle isolated from common marmoset; assay: Test Example 7: relaxant activity on urinary bladder smooth muscle isolated from common marmoset; conditions: KCl 40 mmol/L contraction, papaverine 10^−4 mol/L relaxation taken as 100%
Procedure: Common marmosets are (CLEA Japan, Inc.) exsanguinated to death, and then are subjected to laparotomy to isolate the urinary bladder therefrom. […] The strips are applied a resting tension of 1 g, and are equilibrated for at least 30 minutes. After the resting tension of the strips have been equilibrated, KCl at a final concentration of 40 mmol/L is repeatedly added to the organ bath, and it is confirmed that contraction due to KCl becomes almost constant. […] When the relaxation response at the maximum concentration of the test compound is completed, papaverine at a final concentration of 10^−4 mol/L is added, and the maximum relaxation response of each strip is determined.

β3 receptor I.A. [1]: 100%
β3 receptor I.A. [2]: 100%
SMILES: CC(C)NCC(O)c1ccc(O)c(O)c1 (stereo not shown) [Isoproterenol, reference compound]
relaxant activity (%) 10^−4 M ([3]; 10^−4 M): 62.8%
relaxant activity (%) 10^−5 M ([3]; 10^−5 M): 58.0%
